Results on 4 molecules are retold here after patent US20190150481A1, “COMPOSITIONS AND METHODS OF IMPROVING DIETARY PHOSPHORUS AND CALCIUM UTILIZATION IN ANIMALS” (Novus International, Inc., priority 2017, published 2019).

Where “and” joins values, the source holds several entries; their conditions need not be identical. Identical values can stand only once.

Holding throughout (format): in vivo
Test [1] deals with nursery pigs. In words: Gain to feed ratio during d 15 to 28 in nursery pigs. The conditions noted are these: for G:F (d 15 to 28): 80 ppm Cu. From the text:
(§1) A total of 288 weaning barrows [TR-4×PIC C-22, initial body weight (BW)=5.71±0.71 kg] were allotted to 1 of 8 dietary treatments according to randomized complete block design. Pigs were blocked by initial body weight. The study started from weaning (day 0) to day 42 post-weaning. Three-phase feeding program was used in this study, in which day 0 to 14, day 15 to 28, and day 29 to 42 were considered as nursing phase 1, 2, and 3, respectively. A basal diet for each phase was formulated to meet the energy and nutrient requirement for different stages of pigs according to previously published recommendation,^1 with the exception of P [0.15% reduction of standardized total tract digestible (STTD) P] and Ca (adjusted according to the fixed ratio of Ca/STTD P=2.15). Eight experimental diets were formulated based on basal diet supplemented with phytase (0 or 500 FTU/kg), Zn sources (2000 ppm Zn from ZnO in phase 1 and 2, 100 ppm Zn from ZnO in phase 3; 100 ppm Zn from Zn(HMTBA)2 from phase 1 to 3) and Cu sources (150, 80, 80 ppm Cu from CuSO4 or Cu(HMTBA)2 in phase 1, 2, and 3, respectively) in a 2×2×2 factorial treatment design. Titanium dioxide at 0.4% was included in phase 2 diets to measure Ca and P digestibility.
(§2) SAS 9.4 (SAS Inst. Inc., Gary, N.C.) was used for all data analysis. Pen served as the experimental unit. The LSMEANS statement was be used to calculate the least square means. Tukey-Kramer adjustment was used for multiple comparisons of the least square means. Pooled SEM will be calculated for each measurement. A probability of P 0.05 will be considered as significant and 0.05<P≤0.10 will be declared as a trend. Mineral sources (Zn and Cu), phytase and their interactions were considered as the main effect, while block was considered as the random effect.

The subject of test [2] is nursery pigs. In words: Bone (third metacarpal) Ca, P and ash concentrations in nursery pigs on day 42. Particulars: for Bone Ca (DM basis) / Bone P (DM basis) / Bone ash (DM basis): day 42.
Description: as §1
On day 42, 2 pigs from each pen were euthanized to collect the right front legs. The third metacarpal bone from each right front leg was used to determine DM, Ca, P, and ash concentrations.
as §2

Test [3] deals with nursery pigs. Nature of the test: Standardized total tract digestibility (STTD) of Ca and P in nursery pigs, fecal grab sampling day 24 to 26, titanium dioxide marker. The conditions noted are these: for STTD of Ca / STTD of P: ZnO 2000 ppm Zn vs Zn(HMTBA)2 100 ppm Zn, nursery phase 2.
Description: as §1
Fresh fecal samples were collected via grab sampling from each pig per pen at least twice per day from day 24 to 26. Fecal samples collected from the same pen during the 3 days were pooled together, and a subsample was placed inside a large oven set at 65° C. Oven dried fecal samples were stored at room temperature until analysis for dry matter (DM), Ca, P, and titanium (Ti).
The apparent total tract digestibility (ATTD) coefficient for Ca and P in each treatment was calculated using the following formula:
ATTD of Ca, %=[1−(Cafeces/Cadiet)×(Mdiet/Mfeces)]×100 (Equation 1)
ATTD of P, %=[1−(Pfeces/Pdiet)×Mdiet/Mfeces)]×100 (Equation 2) where Cafeces and Cadiet represented Ca concentrations (g/kg) in feces and diet DM, respectively; Pfeces and Pdiet represented P concentrations (g/kg) in feces and diet DM; Mdiet and Mdigesta represent the marker concentrations (g/kg) in diet and feces DM, respectively.
The standard total tract digestibility (STTD) of Ca was calculated according to the following equation:
STTD of Ca, %=[ATTD of Ca+(basal ECaLend/Cadiet)×100] (Equation 3) where Cadiet represented Ca concentrations (g/kg) in diet DM, respectively; basal ECaLend represented basal endogenous loss of Ca which was approximately 330 mg/kg DMI.
The standard total tract digestibility (STTD) of P was calculated according to the following equation:
STTD of P, %=[ATTD of P+(basal EPLend/Pdiet)×100] (Equation 4) where Pdiet represented P concentrations (g/kg) in diet DM, respectively; basal EPLend represented basal endogenous loss of P which was approximately 190 mg/kg DMI.
as §2

Setting [4] is: both supplemented at 80 ppm, Cu source main effect.

As to `CSCCC(O)C(=O)[O-].CSCCC(O)C(=O)[O-].[Cu+2]` (stereo not drawn) [Cu(HMTBA)2], the “Difference to CuSO4 in gain to feed ratio (G:F) during day 15 to 28” value in the test on nursery pigs [1] (setting [4]) is “no significant differences”. Besides, the “G:F (d 15 to 28)” value with nursery pigs [1] (no phytase) is 0.75 g/g. Also, the “G:F (d 15 to 28)” value in the test on nursery pigs [1] (with phytase 500 FTU/kg) is reported as 0.84 g/g. The “Difference to CuSO4 in bone Ca, P and ash” value with nursery pigs [2] (setting [4]) is listed as “no significant differences”. In the test with nursery pigs [2] (no phytase), the “Bone Ca (DM basis)” value is recorded as 12.55%, the “Bone P (DM basis)” value is 6.44% and the “Bone ash (DM basis)” value amounted to 35.95%. In the test with nursery pigs [2] (with phytase 500 FTU/kg), the “Bone Ca (DM basis)” value is 14.89%, the “Bone P (DM basis)” value is listed as 7.81% and the “Bone ash (DM basis)” value is 41.97%.
As to `O=S(=O)([O-])[O-].[Cu+2]` [CuSO4, reference compound], the “G:F (d 15 to 28)” value with nursery pigs [1] (no phytase) came out at 0.76 g/g. The “G:F (d 15 to 28)” value in the test with nursery pigs [1] (with phytase 500 FTU/kg) stood at 0.80 g/g. Besides, in the test with nursery pigs [2] (no phytase), the “Bone Ca (DM basis)” value turned out to be 13.04%, the “Bone P (DM basis)” value worked out at 6.65% and the “Bone ash (DM basis)” value is reported as 36.69%. For the same molecule, in the test with nursery pigs [2] (with phytase 500 FTU/kg), the “Bone Ca (DM basis)” value is 14.14%, the “Bone P (DM basis)” value was determined as 7.38% and the “Bone ash (DM basis)” value amounted to 40.41%.
On to `CSCCC(O)C(=O)[O-].CSCCC(O)C(=O)[O-].[Zn+2]` (stereo not drawn) [Zn(HMTBA)2], for which the “STTD of Ca” value in the test with nursery pigs [3] (no phytase) was found to be 53.30%; with nursery pigs [3] (with phytase 500 FTU/kg), 65.63%. Besides, the “STTD of P” value in the test on nursery pigs [3] (no phytase) was found to be 32.65%; in the test with nursery pigs [3] (with phytase 500 FTU/kg) it was 46.36%. For the same molecule, the entries for the “Absolute increase of STTD of Ca compared with ZnO” value in the test with nursery pigs [3] (with phytase supplementation) and in the test with nursery pigs [3] (without phytase) were 6.45% and 4.81%, respectively. Also, the “Absolute increase of STTD of P compared with ZnO” value in the test on nursery pigs [3] (with phytase supplementation) came to 12.68%; with nursery pigs [3] (without phytase) it was 29.98%.
Consider `[O]=[Zn]` [ZnO, reference compound], for which, in the test with nursery pigs [3] (no phytase), the “STTD of Ca” value was 48.48% and 48.49%; the “STTD of P” value amounted to 2.67%. For the same molecule, in the test on nursery pigs [3] (with phytase 500 FTU/kg), the “STTD of Ca” value came to 59.18% and the “STTD of P” value is 33.68%.
